Measurements taken from patent US20110262359A1, “COMPOSITIONS COMPRISING ENZYME-CLEAVABLE PRODRUGS OF ACTIVE AGENTS AND INHIBITORS THEREOF” (priority 2010, published 2011).
Like-named read-outs stand apart in the source and are kept apart here.

How the values were obtained:
[1] = Oral administration of Compound PC-6 co-dosed with trypsin inhibitor Compound 109 to rats; format: in vivo; conditions: rat PO; PC-6 6 mg/kg with Compound 109 0.01 to 30 mg/kg
[2] = Oral administration of Compound KC-4 and trypsin inhibitor Compound 109 to rats; format: in vivo; conditions: rat PO; KC-4 6 mg/kg with Compound 109 30 mg/kg
[3] = Oral administration of Compound KC-3 and trypsin inhibitor Compound 109 to rats; format: in vivo; conditions: rat PO; KC-3 50 mg/kg with Compound 109 10 to 40 mg/kg
[4] = Oral administration of Compound KC-2 and trypsin inhibitor Compound 109 to rats; format: in vivo; conditions: rat PO; KC-2 6 mg/kg with Compound 109 30 mg/kg
[5] = Oral administration of Compound PC-5 co-dosed with trypsin inhibitor Compound 109 to rats; format: in vivo; conditions: rat PO; PC-5 6 mg/kg with Compound 109 0.1 to 10 mg/kg
[6] = Oral administration of Compound KC-2 co-dosed with increasing Compound 109 to rats; format: in vivo; conditions: rat PO; KC-2 50 mg/kg with Compound 109 10 to 40 mg/kg
[7] = In vitro stability of Compound KC-2 to household chemicals and enzyme preparations; format: physicochemical; conditions: vodka, baking soda, WINDEX, vinegar at RT or 80° C.; GNC Super Digestive, tenderizer, subtilisn at RT; 1 or 24 hr
Method: Samples were incubated as described and aliquots removed at 1 hr and 24 hr and stabilized by adding each to a solution of 50% or 100% of 85% phosphoric acid solution to achieve a final pH of less than or equal to pH 4. The stabilized aliquots were then diluted 4- to 6-fold with water, vortex-mixed and applied to HPLC.

[8] = molecular target: T1, trypsin from bovine pancreas (Bos taurus, UniProt P00760); test: Effect of trypsin inhibition on in vitro trypsin-mediated release of oxycodone from Compound KC-2; format: biochemical; parameters: trypsin from bovine pancreas; purchased Sigma-Aldrich T8003; host or cells: bovine pancreas (tissue-derived); conditions: no trypsin inhibitor; 0.761 mM Compound KC-2, 0.0228 mg/mL trypsin, 37° C.
T1 sequence (P00760 24-246): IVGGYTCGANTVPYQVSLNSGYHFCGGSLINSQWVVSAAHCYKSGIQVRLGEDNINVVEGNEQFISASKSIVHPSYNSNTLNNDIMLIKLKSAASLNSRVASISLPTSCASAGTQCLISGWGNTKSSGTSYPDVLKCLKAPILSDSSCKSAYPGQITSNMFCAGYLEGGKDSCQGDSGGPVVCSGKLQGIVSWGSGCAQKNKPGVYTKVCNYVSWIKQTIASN

[9] = Pharmacokinetics of oxycodone prodrug Compound KC-2 or oxycodone following PO administration to rats; format: in vivo; conditions: rat PO; Compound KC-2 20 mg/kg vs oxycodone 10 mg/kg
[10] = male, Sprague Dawley, rat, in vivo
[11] = Pharmacokinetics of Compound KC-4 following IV administration to rats; format: in vivo; conditions: KC-4 2 mg/kg ([…])
[12] = molecular target: T2, human μ-opioid receptor (Homo sapiens, UniProt P35372); format: cell-based; conditions: EC50 at the human μ-opioid receptor, oxycodone or hydrocodone to the prodrug of that drug, same experiment
T2 construct: expressed in transfected cells; host or cells: CHO

[13] = Pharmacokinetics of Compound KC-4 following PO administration to rats; format: in vivo; conditions: rat PO; KC-4 6 mg/kg
[14] = molecular target: T1, trypsin from bovine pancreas; test: In vitro trypsin conversion of ketone-modified opioid prodrugs to oxycodone or hydrocodone and inhibition by Compound 109; format: biochemical; parameters: trypsin from bovine pancreas; purchased Sigma-Aldrich T8003; host or cells: bovine pancreas (tissue-derived); conditions: 0.761 mM prodrug, no inhibitor, 37° C.
[15] = Pharmacokinetics of Compound KC-5 following PO administration to rats; format: in vivo; conditions: rat PO
[16] = Pharmacokinetics of Compound KC-6 following PO administration to rats; format: in vivo; conditions: rat PO
[17] = male, Sprague Dawley, rat, in vivo; remark: listed apart in the source
[18] = male, Sprague Dawley, rat, in vivo

T2 sequence (P35372 whole entry): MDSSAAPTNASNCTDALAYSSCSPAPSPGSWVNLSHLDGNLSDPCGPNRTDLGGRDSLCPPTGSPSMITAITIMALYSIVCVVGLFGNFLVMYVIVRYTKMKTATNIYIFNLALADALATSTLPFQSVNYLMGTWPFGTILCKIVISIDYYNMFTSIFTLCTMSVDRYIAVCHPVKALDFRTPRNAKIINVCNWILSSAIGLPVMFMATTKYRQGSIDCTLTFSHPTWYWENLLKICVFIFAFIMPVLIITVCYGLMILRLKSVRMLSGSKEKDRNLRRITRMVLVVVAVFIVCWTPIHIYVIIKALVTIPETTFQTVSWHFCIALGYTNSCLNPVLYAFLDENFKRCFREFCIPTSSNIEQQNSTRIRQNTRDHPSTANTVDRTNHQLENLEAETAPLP

SMILES: N=C(N)c1ccc2cc(OC(=O)c3ccc(N=C(N)N)cc3)ccc2c1 [Compound 109, 6-carbamimidoylnaphthalen-2-yl 4-(diaminomethyleneamino)benzoate]
- effect of Compound 109 on release of hydromorphone from Compound PC-6 [1]: ability to attenuate Compound PC-6's ability to release hydromorphone in a dose dependent manner
- effect of Compound 109 on release of hydrocodone from Compound KC-4 [2]: attenuates Compound KC-4's ability to release hydrocodone, both by suppressing Cmax and AUC and by delaying Tmax
- effect of Compound 109 on release of oxycodone from Compound KC-3 [3]: attenuates Compound KC-3's ability to release oxycodone, both by suppressing Cmax and AUC and by delaying Tmax
- effect of Compound 109 on release of oxycodone from Compound KC-2 [4]: attenuates Compound KC-2's ability to release oxycodone, both by suppressing Cmax and by delaying Tmax
- effect of Compound 109 on release of hydromorphone from Compound PC-5 [5]: ability to attenuate Compound PC-5's ability to release hydromorphone in a dose dependent manner
- effect of Compound 109 on release of oxycodone from Compound KC-2 [6]: ability to attenuate Compound KC-2's ability to release oxycodone in a dose dependent manner

SMILES: COc1ccc2c3c1O[C@H]1C(OC(=O)N(C)CCNC(=O)[C@H](CCCNC(=N)N)NC(C)=O)=CC[C@@]4(O)[C@@H](C2)N(C)CC[C@]314 [Compound KC-2, Oxycodone 6-(N-methyl-N-(2-N′-acetylarginylamino)) ethylcarbamate]
- conversion of Compound KC-2 to oxycodone on exposure to household chemicals and enzyme preparations [7]: less than 10%
- Rate of oxycodone formation, umols/h/umol trypsin Average ± sd [8]: 37.4 ± 0.9 umols/h/umol trypsin
- oxycodone plasma profile compared to administration of oxycodone [9]: yields oxycodone plasma concentrations that exhibit a suppressed Cmax and delayed Tmax compared to administration of oxycodone
- Plasma/CSF partitioning coefficient [10]: 439

SMILES: COc1ccc2c3c1OC1C(OC(=O)N(C)CCNC(=O)[C@H](CCCNC(=N)N)NC(=O)CC(=O)O)=CCC4[C@@H](C2)N(C)CC[C@]314 (stereo partly drawn) [Compound KC-4, N—((S)-1-{2-[(Dihydrocodein-6-enyloxycarbonyl)-methylamino]-ethylcarbamoyl-4-guanidino}-butyl)-malonamic acid]
- KC-4 Cmax (rat plasma) [11]: 3960 ± 570 ng/mL
- Drug/prodrug relative potency [12]: 15
- release of hydrocodone after oral administration [13]: leads to release of hydrocodone
- Rate of hydrocodone formation, umol/h/BAEE U Average ± sd ([14]; 241 BAEE U trypsin/mL): 0.0911 ± 0.015 umol/h/BAEE U
- Rate of hydrocodone formation, umol/h/BAEE U Average ± sd ([14]; 4815 BAEE U trypsin/mL): 0.0137 ± 0.0014 umol/h/BAEE U

SMILES: COc1ccc2c3c1O[C@H]1C(OC(=O)N(CCCCCC(=O)O)CCNC(=O)[C@H](CCCNC(=N)N)NC(C)=O)=CC[C@@]4(O)[C@@H](C2)N(C)CC[C@]314 [Compound KC-5, 6-{[2-(2-Acetylamino-5-guanidino-pentanoylamino)-ethyl]-[(5R, 9R,13S,14S)-4,5a-epoxy-6,7-didehydro-14-hydroxy-3-methoxy-17-methylmorphinan-6-oxy]-1-enyloxycarbonyl-amino}-hexanoic acid]
- oxycodone plasma profile compared to administration of oxycodone [15]: yields oxycodone plasma concentrations that exhibit a suppressed Cmax and AUC and delayed Tmax compared to administration of oxycodone
- expected fold less effective at CNS mu-opioid receptors than oxycodone (administered intravenously in equimolar amounts, 316×50): about 15,800 fold
- Compound conc. in CSF [18]: 36.4 ng/mL
- Compound conc. in Plasma [18]: 54,900 ng/mL
- Plasma/CSF partitioning coefficient [18]: 1,508
- relative plasma/CSF partitioning coefficient of prodrug to oxycodone (fold less CSF penetrant than oxycodone) (rat IV, 1,508/4.8): about 316 fold
- Rate of oxycodone formation, umol/h/BAEE U Average ± sd ([14]; 241 BAEE U trypsin/mL): 0.135 ± 0.005 umol/h/BAEE U

SMILES: COc1ccc2c3c1O[C@H]1C(OC(=O)N(C)C[C@H](NC(=O)[C@H](CCCNC(=N)N)NC(C)=O)C(=O)N(C)CC(=O)O)=CC[C@@]4(O)[C@@H](C2)N(C)CC[C@]314 [Compound KC-6, ({(S)-2-((S)-2-Acetylamino-5-guanidino-pentanoylamino)-3-[(oxycodone-enyloxycarbonyl)-methyl-amino]-propionyl}-methyl-amino)-acetic acid]
- oxycodone plasma profile compared to administration of oxycodone [16]: yields oxycodone plasma concentrations that exhibit a suppressed Cmax and AUC and delayed Tmax compared to administration of oxycodone
- Plasma/CSF partitioning coefficient [17]: 815
- Rate of oxycodone formation, umol/h/BAEE U Average ± sd ([14]; 241 BAEE U trypsin/mL): 0.0118 ± 0.0042 umol/h/BAEE U
- Rate of oxycodone formation, umol/h/BAEE U Average ± sd ([14]; 4815 BAEE U trypsin/mL): 0.00571 ± 0.0002 umol/h/BAEE U
